Measurements as given in US11136317B2, “NADPH oxidase 4 inhibitors” (ACTELION PHARMACEUTICALS LTD, priority 2015, dated 2021).
pIC50: −log10 of the molar value.

Molecular target: T1, human NOX4 (Homo sapiens, UniProt Q9NPH5)
T1 construct: The full-length human NOX4 (NM_016931.3) transcript was cloned; expressed in transfected cells
T1 sequence (Q9NPH5 1-578): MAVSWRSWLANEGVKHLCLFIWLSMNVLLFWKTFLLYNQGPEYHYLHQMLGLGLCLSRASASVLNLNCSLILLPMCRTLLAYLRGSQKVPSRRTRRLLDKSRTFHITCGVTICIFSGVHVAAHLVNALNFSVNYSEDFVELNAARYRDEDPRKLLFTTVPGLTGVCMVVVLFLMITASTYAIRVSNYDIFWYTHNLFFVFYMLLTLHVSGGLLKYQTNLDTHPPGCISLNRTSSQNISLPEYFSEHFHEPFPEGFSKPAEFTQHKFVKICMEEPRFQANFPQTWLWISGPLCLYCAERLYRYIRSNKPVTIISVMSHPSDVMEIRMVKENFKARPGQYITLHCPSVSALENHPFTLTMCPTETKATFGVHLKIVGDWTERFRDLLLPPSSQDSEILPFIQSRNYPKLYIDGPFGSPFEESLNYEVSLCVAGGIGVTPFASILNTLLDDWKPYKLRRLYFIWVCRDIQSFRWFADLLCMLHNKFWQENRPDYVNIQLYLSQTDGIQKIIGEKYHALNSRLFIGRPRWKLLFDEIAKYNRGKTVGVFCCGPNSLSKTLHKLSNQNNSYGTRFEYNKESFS
T1 sequence (P13498 1-195 partner): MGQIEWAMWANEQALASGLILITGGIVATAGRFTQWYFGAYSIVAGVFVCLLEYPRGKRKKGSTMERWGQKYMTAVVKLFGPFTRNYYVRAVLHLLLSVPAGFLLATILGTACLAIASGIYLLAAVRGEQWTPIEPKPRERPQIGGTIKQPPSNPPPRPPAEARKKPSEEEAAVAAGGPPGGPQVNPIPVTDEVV
Assay: Amplex Red activity assay (cellular H2O2 formation in hNOX4 T-REx-293 cells)
Format: cell-based
Settings: tet-induced 24 h, extracellular H2O2 by Amplex Red, 60 min 25° C., geometric mean if determined several times
Method in brief: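 Tet-induced (1 μg/mL, 24 h) HEK293 T-REx cells stably expressing full-length human NOX4, 20 000 cells/well, exposed to compounds (10 concentrations, 50 μM to 100 nM; 1.25% DMSO) for 60 min at 25°C. Extracellular H2O2 detected by Amplex Red resorufin fluorescence (ex 550/em 600 nm) versus vehicle; IC50 calculated.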

Row | SMILES | pIC50
1 | O=C(Nc1ccc2sc(N3CCC[C@H](O)C3)nc2c1)c1ccc2c(c1)CCO2 [Example 114, 2,3-Dihydro-benzofuran-5-carboxylic acid [2-((S)-3-hydroxy-piperidin-1-yl)-benzothiazol-5-yl]-amide] | 5.53
2 | O=C(Nc1ccc2sc(N3CCC4(COC4)C3)nc2c1)c1ccc2c(c1)CCO2 [Example 115, 2,3-Dihydro-benzofuran-5-carboxylic acid [2-(2-oxa-6-aza-spiro[3.4]oct-6-yl)-benzothiazol-5-yl]-amide] | 5.47
3 | O=C(Nc1ccc2sc(N3CCC[C@@H](O)C3)nc2c1)c1ccc2c(c1)CCO2 [Example 116, 2,3-Dihydro-benzofuran-5-carboxylic acid [2-((R)-3-hydroxy-piperidin-1-yl)-benzothiazol-5-yl]-amide] | 5.66
4 | CN(C)CC1CCCN1c1nc2cc(NC(=O)c3ccc4c(c3)CCO4)ccc2s1 (stereo not shown) [Example 117, 2,3-Dihydro-benzofuran-5-carboxylic acid [2-(2-dimethylaminomethyl-pyrrolidin-1-yl)-benzothiazol-5-yl]-amide] | 5.42
5 | O=C(Nc1ccc2oc(N3CCC3)nc2c1)c1ccc2c(c1)CCO2 [Example 118, 2,3-Dihydro-benzofuran-5-carboxylic acid (2-azetidin-1-yl-benzooxazol-5-yl)-amide] | 6.30
6 | CCNc1nc2cc(NC(=O)c3ccc4c(c3)CCO4)ccc2o1 [Example 119, 2,3-Dihydro-benzofuran-5-carboxylic acid (2-ethylamino-benzooxazol-5-yl)-amide] | 6.00
7 | O=C(Nc1ccc2oc(N3CC(c4ccccn4)C3)nc2c1)c1ccc2c(c1)CCO2 [Example 120, 2,3-Dihydro-benzofuran-5-carboxylic acid [2-(3-pyridin-2-yl-azetidin-1-yl)-benzooxazol-5-yl]-amide] | 5.63
8 | O=C(Nc1ccc2oc(N3CC(F)(F)C3)nc2c1)c1ccc2c(c1)OCO2 [Example 121, Benzo[1,3]dioxole-5-carboxylic acid [2-(3,3-difluoro-azetidin-1-yl)-benzooxazol-5-yl]-amide] | 5.02
9 | O=C(Nc1ccc2oc(N3CC(O)C3)nc2c1)c1ccc2c(c1)OCO2 [Example 122, Benzo[1,3]dioxole-5-carboxylic acid [2-(3-hydroxy-azetidin-1-yl)-benzooxazol-5-yl]-amide] | 5.68
10 | O=C(Nc1ccc2oc(N3CCC34CCC4)nc2c1)c1ccc2c(c1)OCO2 [Example 123, Benzo[1,3]dioxole-5-carboxylic acid [2-(1-aza-spiro[3.3]hept-1-yl)-benzooxazol-5-yl]-amide] | 6.36
11 | O=C(Nc1ccc2oc(N3CCC34COC4)nc2c1)c1ccc2c(c1)OCO2 [Example 124, Benzo[1,3]dioxole-5-carboxylic acid [2-(6-oxa-1-aza-spiro[3.3]hept-1-yl)-benzooxazol-5-yl]-amide] | 6.38
12 | O=C(Nc1ccc2oc(N3CCC34CCOC4)nc2c1)c1ccc2c(c1)OCO2 (stereo not shown) [Example 125, Benzo[1,3]dioxole-5-carboxylic acid [2-(6-oxa-1-aza-spiro[3.4]oct-1-yl)-benzooxazol-5-yl]-amide] | 6.11
13 | O=C(Nc1ccc2oc(N3CCC34CCOCC4)nc2c1)c1ccc2c(c1)OCO2 [Example 126, Benzo[1,3]dioxole-5-carboxylic acid [2-(7-oxa-1-aza-spiro[3.5]non-1-yl)-benzooxazol-5-yl]-amide] | 6.12
14 | O=C(Nc1ccc2oc(N3CCCC3)nc2c1)c1ccc2c(c1)OCO2 [Example 127, Benzo[1,3]dioxole-5-carboxylic acid (2-pyrrolidin-1-yl-benzooxazol-5-yl)-amide] | 5.90
15 | O=C(Nc1ccc2oc(N3CCCC34COC4)nc2c1)c1ccc2c(c1)OCO2 [Example 128, Benzo[1,3]dioxole-5-carboxylic acid [2-(2-oxa-5-aza-spiro[3.4]oct-5-yl)-benzooxazol-5-yl]-amide] | 5.76
16 | O=C(Nc1ccc2oc(N3CCCCC3)nc2c1)c1ccc2c(c1)OCO2 [Example 129, Benzo[1,3]dioxole-5-carboxylic acid (2-piperidin-1-yl-benzooxazol-5-yl)-amide] | 6.07
17 | O=C(Nc1ccc2oc(N3CCCC(F)(F)C3)nc2c1)c1ccc2c(c1)OCO2 [Example 130, Benzo[1,3]dioxole-5-carboxylic acid [2-(3,3-difluoro-piperidin-1-yl)-benzooxazol-5-yl]-amide] | 6.00

Row | SMILES | pIC50
18 | COC1CCN(c2nc3cc(NC(=O)c4ccc5c(c4)OCO5)ccc3o2)CC1 [Example 131, Benzo[1,3]dioxole-5-carboxylic acid [2-(4-methoxy-piperidin-1-yl)-benzooxazol-5-yl]-amide] | 5.98
19 | O=C(Nc1ccc2oc(N3CCC4(CC3)COC4)nc2c1)c1ccc2c(c1)OCO2 [Example 132, Benzo[1,3]dioxole-5-carboxylic acid [2-(2-oxa-7-aza-spiro[3.5]non-7-yl)-benzooxazol-5-yl]-amide] | 5.97
20 | O=C(Nc1ccc2oc(N3CCCC4(COC4)C3)nc2c1)c1ccc2c(c1)OCO2 [Example 133, Benzo[1,3]dioxole-5-carboxylic acid [2-(2-oxa-6-aza-spiro[3.5]non-6-yl)-benzooxazol-5-yl]-amide] | 6.21
21 | O=C(Nc1ccc2oc(N3CCC(F)(F)CC3)nc2c1)c1ccc2c(c1)OCO2 [Example 134, Benzo[1,3]dioxole-5-carboxylic acid [2-(4,4-difluoro-piperidin-1-yl)-benzooxazol-5-yl]-amide] | 6.06
22 | O=C(Nc1ccc2oc(N3CCC(O)CC3)nc2c1)c1ccc2c(c1)OCO2 [Example 135, Benzo[1,3]dioxole-5-carboxylic acid [2-(4-hydroxy-piperidin-1-yl]-benzooxazol-5-yl]-amide] | 5.96
23 | O=C(Nc1ccc2oc(N3CCOCC3)nc2c1)c1ccc2c(c1)OCO2 [Example 136, Benzo[1,3]dioxole-5-carboxylic acid (2-morpholin-4-yl-benzooxazol-5-yl)-amide] | 5.89
24 | CN1CCN(c2nc3cc(NC(=O)c4ccc5c(c4)OCO5)ccc3o2)CC1 [Example 137, Benzo[1,3]dioxole-5-carboxylic acid [2-(4-methyl-piperazin-1-yl)-benzooxazol-5-yl]-amide] | 5.79
25 | O=C(Nc1ccc2oc(N(C3CC3)C3COC3)nc2c1)c1ccc2c(c1)OCO2 [Example 138, Benzo[1,3]dioxole-5-carboxylic acid [2-(cyclopropyl-oxetan-3-yl-amino)-benzooxazol-5-yl]-amide] | 5.83
26 | CCN(CC)c1nc2cc(NC(=O)c3ccc4c(c3)OCO4)ccc2o1 [Example 139, Benzo[1,3]dioxole-5-carboxylic acid (2-diethylamino-benzooxazol-5-yl)-amide] | 5.96
27 | O=C(Nc1ccc2oc(N3CC(O)C3)nc2c1)c1ccc2c(c1)CCCO2 [Example 140, Chroman-6-carboxylic acid [2-(3-hydroxy-azetidin-1-yl)-benzooxazol-5-yl]-amide] | 5.60
28 | O=C(Nc1ccc2oc(N3CC(F)(F)C3)nc2c1)c1ccc2c(c1)CCCO2 [Example 141, Chroman-6-carboxylic acid [2-(3,3-difluoro-azetidin-1-yl)-benzooxazol-5-yl]-amide] | 4.97
29 | O=C(Nc1ccc2oc(N3CCC34CCC4)nc2c1)c1ccc2c(c1)CCCO2 [Example 142, Chroman-6-carboxylic acid [2-(1-aza-spiro[3.3]hept-1-yl)-benzooxazol-5-yl]-amide] | 6.05
30 | O=C(Nc1ccc2oc(N3CCC34COC4)nc2c1)c1ccc2c(c1)CCCO2 [Example 143, Chroman-6-carboxylic acid [2-(6-oxa-1-aza-spiro[3.3]hept-1-yl)-benzooxazol-5-yl]-amide] | 6.17
31 | O=C(Nc1ccc2oc(N3CCC34CCOC4)nc2c1)c1ccc2c(c1)CCCO2 (stereo not shown) [Example 144, Chroman-6-carboxylic acid [2-(6-oxa-1-aza-spiro[3.4]oct-1-yl)-benzooxazol-5-yl]-amide] | 5.81
32 | O=C(Nc1ccc2oc(N3CCC34CCOCC4)nc2c1)c1ccc2c(c1)CCCO2 [Example 145, Chroman-6-carboxylic acid [2-(7-oxa-1-aza-spiro[3.5]non-1-yl)-benzooxazol-5-yl]-amide] | 5.85
33 | O=C(Nc1ccc2oc(N3CCCC3)nc2c1)c1ccc2c(c1)CCCO2 [Example 146, Chroman-6-carboxylic acid (2-pyrrolidin-1-yl-benzooxazol-5-yl)-amide] | 5.50
34 | O=C(Nc1ccc2oc(N3CCCC34COC4)nc2c1)c1ccc2c(c1)CCCO2 [Example 147, Chroman-6-carboxylic acid [2-(2-oxa-5-aza-spiro[3.4]oct-5-yl)-benzooxazol-5-yl]-amide] | 6.42
